Measured values: PMC9271180 (Proceedings of the National Academy of Sciences of the …, 2022)

Experiments:
HrtBA = settings: 2 mM ATP; lipid nanodiscs; 37 °C; activation of ATPase; site in HrtB dimer
[1] = target: HrtB permease subunit of the heme efflux pump HrtBA from Corynebacterium diphtheriae (Corynebacterium diphtheriae NCTC13129); test: crystal structure

Molecule	EC50 (HrtBA) [nM]	stoichiometry N [1]
C=CC1=C(C)C2=Cc3c(C=C)c(C)c4[n]3[Fe+][n]3c(c(C)c(CCC(=O)O)c3=CC3=NC(=C4)C(C)=C3CCC(=O)O)=CC1=N2 [heme]	900	–
HrtB permease subunit of the heme efflux pump HrtBA from Corynebacterium diphtheriae (natural protein)	–	2
